Like-named read-outs stand apart in the source and are kept apart here.
How the values were obtained:
Assay type in all cases: biochemical
[1] = target: CDK4/Cyclin-D1 kinase complex (Homo sapiens, UniProt P11802); test: CDK4 ELISA based assay, Rb Ser780 phosphorylation
Description: The compounds that inhibit the CDK4 kinase activity would inhibit the signal output of the assay.

[2] = target: CDK2/Cyclin-A kinase complex (Homo sapiens, UniProt P24941); test: CDK2 IMAP fluorescence polarization assay
Outline: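 Fluorescence polarization (IMAP) using purified active CDK2/Cyclin-A complex with a TAMRA-tagged Histone H1-derived peptide substrate; phosphorylated peptide bound by a metal-containing reagent raises polarization. Inhibition read as reduced fluorescence polarization signal.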

CDK4 = CDK4 (Homo sapiens, UniProt P11802); test: CDK4 HTRF assay; conditions: Table E; read-out: CDK4 HTRF/IC50 [umol l − 1]
Sequence of CDK4 (P11802 whole entry): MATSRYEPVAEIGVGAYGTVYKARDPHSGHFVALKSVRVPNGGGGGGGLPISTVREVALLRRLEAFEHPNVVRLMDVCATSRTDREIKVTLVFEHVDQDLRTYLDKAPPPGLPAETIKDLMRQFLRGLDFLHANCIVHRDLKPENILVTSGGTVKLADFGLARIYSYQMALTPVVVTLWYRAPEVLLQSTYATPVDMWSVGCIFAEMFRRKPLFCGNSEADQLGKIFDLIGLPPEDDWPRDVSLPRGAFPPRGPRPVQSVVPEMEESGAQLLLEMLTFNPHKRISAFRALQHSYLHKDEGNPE
Sequence of CDK4 (P24385 whole entry partner): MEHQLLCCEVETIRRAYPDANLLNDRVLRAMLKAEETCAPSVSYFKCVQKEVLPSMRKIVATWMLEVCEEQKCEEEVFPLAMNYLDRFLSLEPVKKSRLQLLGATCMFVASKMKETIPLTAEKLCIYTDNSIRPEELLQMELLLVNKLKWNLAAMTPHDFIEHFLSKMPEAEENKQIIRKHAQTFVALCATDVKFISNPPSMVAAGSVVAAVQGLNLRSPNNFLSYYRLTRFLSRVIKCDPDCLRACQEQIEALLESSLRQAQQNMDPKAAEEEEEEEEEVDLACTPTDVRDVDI

hCDK1/B = hCDK1/B (Homo sapiens, UniProt P06493); test: hCDK1/B assay; conditions: Table E; read-out: hCDK1/B/IC50 [umol l − 1]
Sequence of hCDK1/B (P06493 whole entry): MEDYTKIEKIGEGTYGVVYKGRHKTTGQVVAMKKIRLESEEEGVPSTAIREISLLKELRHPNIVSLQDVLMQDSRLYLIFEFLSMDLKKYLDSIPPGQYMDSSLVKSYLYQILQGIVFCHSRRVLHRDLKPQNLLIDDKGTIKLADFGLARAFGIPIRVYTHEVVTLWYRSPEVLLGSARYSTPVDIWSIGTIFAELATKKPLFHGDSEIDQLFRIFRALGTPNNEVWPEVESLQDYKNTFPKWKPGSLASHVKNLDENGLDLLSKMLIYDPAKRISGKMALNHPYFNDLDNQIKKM
Sequence of hCDK1/B (P14635 whole entry partner): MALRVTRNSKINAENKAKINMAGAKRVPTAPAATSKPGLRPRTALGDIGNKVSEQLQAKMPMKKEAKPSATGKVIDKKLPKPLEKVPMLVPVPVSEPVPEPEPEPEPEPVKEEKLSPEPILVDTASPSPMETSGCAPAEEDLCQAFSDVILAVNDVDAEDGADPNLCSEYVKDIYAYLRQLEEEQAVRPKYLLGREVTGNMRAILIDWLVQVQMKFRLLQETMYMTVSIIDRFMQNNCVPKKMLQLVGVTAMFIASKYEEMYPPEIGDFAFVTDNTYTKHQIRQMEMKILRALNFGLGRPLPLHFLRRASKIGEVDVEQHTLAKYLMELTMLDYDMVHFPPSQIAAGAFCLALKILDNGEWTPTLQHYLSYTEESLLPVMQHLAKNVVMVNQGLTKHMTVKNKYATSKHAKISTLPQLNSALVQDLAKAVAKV

[3] = Table E, read-out: CDK4 ELISA assay IC50 [umol l−]
[4] = Table E, read-out: CDK2cyA IMAP/IC50 [umol l − 1]

Sequence of CDK4/Cyclin-D1 kinase complex (P11802 whole entry): as the sequence (P11802 whole entry) above
Sequence of CDK4/Cyclin-D1 kinase complex (P24385 whole entry partner): as the sequence (P24385 whole entry partner) above

Row | IC50 ([1]; Table C, read-out: CDK4 IC50) | IC50 ([2]; Table C, read-out: CDK2 IC50) | IC50 [1, 3] | IC50 [2, 4] | IC50 (CDK4) | IC50 (hCDK1/B) | Compound
1 | < 10 µM |  |  |  |  |  | CCC(CC)N1C(=O)Cc2cnc(Nc3ccc(N4CCNCC4)cc3)nc21
2 |  |  | > 10 µM |  |  |  | CCC(CC)n1ccc2cnc(Nc3ccc(C4CCCN(C(=O)CC#N)C4)cc3)nc21 (stereo not drawn) [Example 215]
3 |  |  | > 10 µM |  |  |  | CCC(CC)n1ccc2cnc(Nc3ccc(C(=O)NC4CCCC4)cc3)nc21 [Example 217]
4 |  |  |  | < 10 µM | < 1 µM | < 10 µM | Cc1cn(C2CCCC2)c2nc(Nc3ccc(CN4CCNCC4)cc3)ncc12 [Example 314]
5 |  |  |  | < 1 µM | < 1 µM | < 10 µM | Cc1cn(C2CCC(O)C2)c2nc(Nc3ccc(CN4CCNCC4)cc3)ncc12 (stereo not drawn) [Example 316]
6 |  |  | > 10 µM |  |  |  | CCC(CC)n1cc(C)c2cnc(Nc3ccc(C(=O)NC4CCCC4)cc3)nc21 [Example 319]
7 |  |  |  | < 10 µM | < 1 µM | < 10 µM | CN(C)C(=O)c1cc2cnc(Nc3ccc(N4CCNCC4)cc3)nc2n1C1CCCC1 [Example 338]
8 |  |  |  | > 10 µM | < 1 µM | > 10 µM | CN(C)C(=O)c1cc2cnc(Nc3ccc(CN4CCNCC4)cc3)nc2n1C1CCCC1 [Example 339]
9 |  |  |  | < 10 µM | < 1 µM | < 10 µM | CN(C)C(=O)c1cc2cnc(Nc3ccc(CN4CCOCC4)cc3)nc2n1C1CCCC1 [Example 340]
10 |  |  |  | > 10 µM | < 1 µM | < 10 µM | CN(C)C(=O)c1cc2cnc(Nc3ccc(C4CCNCC4)cc3)nc2n1C1CCCC1 [Example 341]
11 |  |  |  | < 10 µM | < 1 µM | < 10 µM | CCC(CC)n1c(C(=O)N(C)C)cc2cnc(Nc3ccc(CN4CCNCC4)cc3)nc21 [Example 342]
12 |  |  |  | < 10 µM | < 1 µM | < 10 µM | CCC(CC)n1c(C(=O)NC)cc2cnc(Nc3ccc(N4CCNCC4)cc3)nc21 [Example 346]
13 |  |  |  | > 10 µM | < 1 µM | > 10 µM | CCC(CC)n1c(C(=O)Nc2ccc(OC)cc2)cc2cnc(Nc3ccc(N4CCNCC4)cc3)nc21 [Example 347]
14 |  |  |  | > 15 µM | < 1 µM | > 15 µM | CCC(CC)n1c(C(=O)Nc2ccc(C)cc2)cc2cnc(Nc3ccc(N4CCNCC4)cc3)nc21 [Example 348]
15 |  |  |  | > 15 µM | < 1 µM | > 10 µM | CCC(CC)n1c(C(=O)Nc2cccc(C(F)(F)F)c2)cc2cnc(Nc3ccc(N4CCNCC4)cc3)nc21 [Example 350]
16 |  |  |  | < 10 µM | < 1 µM | < 10 µM | CCC(CC)n1c(C(=O)Nc2ccccn2)cc2cnc(Nc3ccc(N4CCNCC4)cc3)nc21 [Example 351]
17 |  |  |  | > 10 µM | < 1 µM | < 10 µM | CCC(CC)n1c(C(=O)Nc2cccnc2)cc2cnc(Nc3ccc(N4CCNCC4)cc3)nc21 [Example 352]
18 |  |  |  | > 15 µM | < 1 µM | > 15 µM | CCC(CC)n1c(C(=O)Nc2ccncc2)cc2cnc(Nc3ccc(N4CCNCC4)cc3)nc21 [Example 353]
19 |  |  |  | < 10 µM | < 1 µM | < 10 µM | CCC(CC)n1c(C(=O)Nc2cc[nH]n2)cc2cnc(Nc3ccc(N4CCNCC4)cc3)nc21 [Example 356]
20 |  |  |  | < 10 µM | < 1 µM | < 10 µM | CCC(CC)n1c(C(=O)Nc2cccc(F)c2)cc2cnc(Nc3ccc(N4CCNCC4)cc3)nc21 [Example 357]
21 |  |  |  | > 15 µM | < 1 µM | > 15 µM | CCC(CC)n1c(C(=O)Nc2cccc(C(C)(C)C)c2)cc2cnc(Nc3ccc(N4CCNCC4)cc3)nc21 [Example 358]
22 |  |  |  | < 10 µM | < 1 µM | < 10 µM | CCC(CC)n1c(C(=O)Nc2ccc(C(F)(F)F)cc2)cc2cnc(Nc3ccc(N4CCNCC4)cc3)nc21 [Example 359]
23 |  |  |  | < 1 µM | < 1 µM | < 10 µM | CCC(CC)n1c(CNCCc2cc3ccccc3[nH]2)cc2cnc(Nc3ccc(N4CCN(C(C)=O)CC4)cc3)nc21 [Example 368]
24 |  |  | > 10 µM |  |  |  | CCC(CC)n1c(COC)cc2cnc(Nc3ccc(C(=O)NC4CCCC4)cc3)nc21 [Example 380]
25 |  |  |  | < 1 µM | < 1 µM | < 1 µM | Cc1c(-c2cnco2)n(C2CCCC2)c2nc(Nc3ccc(CN4CCNCC4)cc3)ncc12 [Example 402]
26 |  |  | > 10 µM |  |  |  | CCC(CC)n1cc(C(=O)OC)c2cnc(Nc3ccc(N4CCN(C(C)=O)CC4)cc3)nc21 [Example 428]
27 |  |  | > 10 µM |  |  |  | CCC(CC)n1cc(C(=O)OC)c2cnc(Nc3ccc(N4CCNCC4)cc3)nc21 [Example 429]
28 |  |  |  | < 10 µM | < 1 µM | < 10 µM | CN(C)C(=O)c1cc2cnc(Nc3ccc(N4CCN(C(=O)OC(C)(C)C)CC4)cc3)nc2n1C1CCCC1 [Example 463]
29 |  |  |  | < 10 µM | < 1 µM | < 10 µM | CCC(CC)n1c(C(=O)N(C)C)cc2cnc(Nc3ccc(CN4CCN(C(=O)OC(C)(C)C)CC4)cc3)nc21 [Example 465]
30 | < 10 µM |  |  |  |  |  | CCC(CC)N1C(=O)C(C)(C)c2cnc(Nc3ccc(N4CCNCC4)cc3)nc21 [drawing 162]

Continued, molecule first:

Row | Compound | IC50 ([1]; Table C, read-out: CDK4 IC50) | IC50 ([2]; Table C, read-out: CDK2 IC50) | IC50 [1, 3] | IC50 [2, 4] | IC50 (CDK4) | IC50 (hCDK1/B)
31 | CCC(CC)N1C(=O)Cc2cnc(Nc3ccc(N4CCNCC4)cn3)nc21 | > 10 µM | < 10 µM |  |  |  | 
32 | CCC(CC)N1C(=O)C(C)(C)c2cnc(Nc3ccc(N4CCN(C(C)=O)CC4)cn3)nc21 | > 10 µM | > 10 µM |  |  |  | 
33 | CCC(CC)N1C(=O)C(C)(C)c2cnc(Nc3ccc(N4CCNCC4)cn3)nc21 | < 10 µM | > 10 µM |  |  |  | 
34 | CCC(CC)N1C(=O)C(C)(C)c2cnc(Nc3ccc(N4CCN(C(=O)OC(C)(C)C)CC4)cc3)nc21 | > 10 µM |  |  |  |  | 
35 | CC1(C)C(=O)N(C2CCCC2)c2nc(Nc3ccc(N4CCNCC4)cn3)ncc21 | < 10 µM |  |  |  |  | 
36 | CCC(CC)n1ccc2cnc(Nc3ccc(N4CCN(C(C)=O)CC4)cn3)nc21 [Example 206] |  |  | > 10 µM | > 10 µM |  | 
37 | CCC(CC)n1ccc2cnc(NC3CCCC3)nc21 [Example 210] |  |  | > 10 µM |  |  | 
38 | CCC(CC)n1ccc2cnc(NC3CC3)nc21 [Example 218] |  |  | > 10 µM |  |  | 
39 | Cc1cn(C2CCCC2)c2nc(NN3CCN(C)CC3)ncc12 [Example 306] |  |  |  | > 10 µM | > 10 µM | > 10 µM
40 | Cc1cn(C2CCCC2)c2nc(Nc3ccc(CN4CCOCC4)cc3)ncc12 [Example 313] |  |  |  | < 10 µM | < 1 µM | < 10 µM
41 | Cc1cn(C2CCC(O)C2)c2nc(Nc3ccc(CN4CCOCC4)cc3)ncc12 (stereo not drawn) [Example 315] |  |  |  | < 1 µM | < 1 µM | < 10 µM
42 | Cc1cn(-c2c[nH]cn2)c2nc(Nc3ccc(N4CCNCC4)cn3)ncc12 [Example 324] |  |  |  | > 10 µM | < 1 µM | > 10 µM
43 | Cc1nnc(-c2c(C)c3cnc(Nc4ccc(N5CCNCC5)cn4)nc3n2C2CCCC2)o1 [Example 386, [7-Cyclopentyl-5-methyl-6-(5-methyl-[1,3,4]oxadiazol-2-yl)-7H-pyrrolo[2,3d]pyrimidin-2-yl]-(5-piperazin-1-yl-pyridin-2-yl)-amine] |  |  |  | < 10 µM | < 1 µM | < 10 µM
44 | CC(=O)c1c(C)c2cnc(Nc3ccc(N4CCNCC4)cn3)nc2n1C1CCCCCC1 [Example 389] |  |  |  | < 10 µM | < 1 µM | > 10 µM
45 | Cc1c(C(N)=O)n(C2CCCC2)c2nc(Nc3ccc(N4CCNCC4)cn3)ncc12 [Example 391] |  |  |  | > 10 µM | < 1 µM | > 10 µM
46 | Cc1c(C#N)n(C2CCCC2)c2nc(Nc3ccc(N4CCNCC4)cn3)ncc12 [Example 393] |  |  |  | < 10 µM | < 1 µM | < 10 µM
47 | Cc1c(C#N)n(C2CCCC2)c2nc(Nc3ccc(N4CCC(N(C)C)CC4)cn3)ncc12 [Example 394] |  |  |  | > 10 µM | < 1 µM | > 15 µM
48 | Cc1c(C#N)n(C2CCCC2)c2nc(Nc3ccc(N4CCC(N(C)C)CC4)cc3)ncc12 [Example 395] |  |  |  | < 1 µM | < 1 µM | < 1 µM
49 | CCC(C)n1c(C#N)c(C)c2cnc(Nc3ccc(N4CCC(N(C)C)CC4)cc3)nc21 (stereo not drawn) [Example 396] |  |  |  | < 1 µM | < 1 µM | < 1 µM
50 | Cc1c(-c2cnco2)n(C2CCCC2)c2nc(Nc3ccc(N4CCNCC4)cc3)ncc12 [Example 398] |  |  |  | < 1 µM | < 1 µM | < 1 µM
51 | Cc1c(-c2cnco2)n(C2CCCCCC2)c2nc(Nc3ccc(N4CCNCC4)cn3)ncc12 [Example 400] |  |  |  | < 1 µM | < 1 µM | < 1 µM
52 | Cc1c(-c2cnco2)n(C2CCCC2)c2nc(Nc3ccc(CN4CCOCC4)cc3)ncc12 [Example 401] |  |  |  | < 1 µM | < 1 µM | < 1 µM
53 | Cc1c(-c2cnco2)n(C2CCCC2)c2nc(Nc3ccc(CN4CCNCC4)cn3)ncc12 [Example 403] |  |  |  | < 10 µM | < 1 µM | < 10 µM
54 | Cc1n[nH]c(-c2c(C)c3cnc(Nc4ccc(N5CCNCC5)cn4)nc3n2C2CCCC2)n1 [Example 406] |  |  |  | > 10 µM | < 1 µM | > 10 µM
55 | Cc1noc(-c2c(C)c3cnc(Nc4ccc(N5CCNCC5)cn4)nc3n2C2CCCC2)n1 [Example 407] |  |  |  | < 10 µM | < 1 µM | < 10 µM
56 | CCN(CC)c1ccc(Nc2ncc3c(C)cn(C4CCCC4)c3n2)cc1 [Example 457] |  |  |  | > 10 µM | > 10 µM | > 10 µM
57 | CN(C)C(=O)c1cc2cnc(NCc3ccc(N4CCN(C(=O)OC(C)(C)C)CC4)cc3)nc2n1C1CCCC1 [Example 468] |  |  |  | > 15 µM | > 10 µM | > 15 µM
58 | Cc1cn(C2CCCC2)c2nc(Nc3ccc(N4CCNCC4)cc3)ncc12 [drawing 150] | < 10 µM |  |  |  |  | 

From patent publication US20120207763A1, “PYRROLOPYRIMIDINE COMPOUNDS AND THEIR USES” (ASTEX THERAPEUTICS LIMITED, priority 2006, published 2012)
